{"source": "paper PMC6658769", "about": "“First-Time-in-Human Study and Prediction of Early Bactericidal Activity for GSK3036656, a Potent Leucyl-tRNA Synthetase Inhibitor for Tuberculosis Treatment” (Antimicrobial Agents and Chemotherapy, 2019)", "key": {"[1]": {"settings": "human, in vivo"}, "M. tuberculosis": {"system": "M. tuberculosis", "settings": "cited from earlier work"}}, "note": "Where two headings read alike, the source gives them in different places."}
{"compound": "NC[C@@H](O)c1c(Cl)ccc(OCCO)c1O", "note": "[GSK3635633]", "values": [{"measurement": "% dose in pooled urine", "setting": "[1]", "result": 6, "unit": "% dose"}]}
{"compound": "COc1nc2ccc(Br)cc2cc1[C@@H](c1ccccc1)[C@@](O)(CCN(C)C)c1cccc2ccccc12", "note": "[bedaquiline]", "values": [{"measurement": "reported average EBA0–14", "setting": "M. tuberculosis; loading doses of 700 mg on day 1 and 500 mg on day 2 and then 400 mg", "result": 0.061}]}
{"compound": "C[C@]1(COc2ccc(N3CCC(Oc4ccc(OC(F)(F)F)cc4)CC3)cc2)Cn2cc([N+](=O)[O-])nc2O1", "note": "[delamanid]", "values": [{"measurement": "reported average EBA0–14", "setting": "M. tuberculosis; 300 mg", "result": 0.065}]}
